# Measured values taken from US20110224256A1, “T[…] THE TREATMENT OF PSYCHIATRIC DISORDERS” (priority 2008, published 2011).
# Entries after “also recorded” stand apart in the source; their conditions may differ.
# Key:
# Sprague-Dawley male rats [1] = experiment: Place conditioning to 10 mg/kg cocaine at P60 after juvenile drug exposure; assay type: in vivo; settings: for place conditioning to cocaine-associated environment (pre- vs. post-conditioning): tested at P60, 10 mg/kg cocaine
# Protocol: Juvenile Sprague-Dawley male rats were treated with MPH (2 mg/kg, i.p. twice daily), ±7-OHDPAT (0.3 mg/kg, i.p. twice daily), Naf (0.05, 0.5 and 5 mg/kg; i.p. twice daily) or VEH (i.p. twice daily) between the ages of P20 and P35 (Andersen et al., Nat. Neurosci., 5:13-14 (2002)). The MPH dose was selected on the basis of previous studies (see Andersen et al., Nat. Neurosci., 5:13-14 (2002); Bolanos et al., Biol. Psychiatry, 54:1317-1329 (2003); and Mague et al., Biol. Psychiatry, 57:120-125 (2005)), unpublished observations that we find similar behavioral effects if MPH is given i.p. or orally at this dose, and evidence that it approximates a clinically relevant dose in humans based on plasma levels (see Wargin et al., J. Pharmacol. Exp. Ther., 226:382-386 (1983); and Kuczenski, R. & Segal, D. S. J. Neurosci., 22:7264-7271 (2002)). Clinically therapeutic doses of MPH yield plasma levels between 8 and 40 ng/mL (Swanson et al., Behay. Brain Res., 130:73-78 (2002); Teicher et al., Ann. N. Y. Acad. Sci., 1071:313-323 (2006)), with 0.5 mg/kg i.p., achieving plasma levels of 36 ng/mL within 5 min in rats (Berridge et al., Biol. Psychiatry, 60:1111-1120 (2006)). Doses for juvenile exposure to ±7-OHDPAT are based on Neisewander et al., Neuropsychopharmacology, 29:1479-1487 (2004), and cortical microinjections of 10 µg/side were derived from Boulay et al. Prog. Neuropsychopharmacol. Biol. Psychiatry, 24:39-49 (2000). Naf doses below 1 mg/kg have negligible D2 receptor occupancy (Sautel et al., J. Pharmacol. Exp. Ther., 275:1239-1246 (1995)) and are behaviorally effective (Richtand et al., Brain Res., 867:239-242 (2000)). Subjects were weighed daily at 09.00 h and injected with their assigned drug; the second injection was administered 4 h later at 13.00 h. This regimen is designed to match the twice-daily dosing used by children, taking into account the higher metabolic rates of rats (Wargin et al., J. Pharmacol. Exp. Ther., 226:382-386 (1983)). After the second drug administration on P35, the rats received no further treatments until behavioral testing at P60.
# Rats treated between P20 and P35 with either Naf (0, 0.05, 0.5 or 5.0 mg/kg; n=7-9), ±7-OHDPAT (0.3 mg/kg; n=9), MPH (2 mg/kg; n=9), or a combination of 2 mg/kg MPH and 0.05 mg/kg Naf (MPH/Naf; n=8) were tested at P60 for place conditioning to 10 mg/kg cocaine. According to standard laboratory methods (Andersen et al., Nat. Neurosci., 5:13-14 (2002); Carlezon, Methods Mol. Med., 84:243-249 (2003)), unbiased place conditioning chambers consisted of two large (24×18×33) side compartments separated by a small (12×18×33 cm) middle compartment. Screening was conducted for 30 min on Day 1. Rats were placed in the middle compartment and allowed to freely explore the apparatus. […] Two days of conditioning (with two sessions per day) occurred on Days 2 and 3 for 60 min (Andersen et al., Nat. Neurosci., 5:13-14 (2002); Carlezon, Methods Mol. Med., 84:243-249 (2003)). During the conditioning sessions, rats received a 1 mL/kg i.p. injection of VEH in the morning (09.00 h) and confined to one side. The rats were then returned to the home cage. Four hours later, rats received 10 mg/kg cocaine and confined to the other side. Sides differed in floor texture, wall colors and lighting, and assignments were counterbalanced. On Day 4, rats were permitted to freely explore the entire apparatus for 30 min in a drug-free state.
# Sprague-Dawley male rats [2] = experiment: Locomotor activity at 60 days old after juvenile ±7-OHDPAT exposure; assay type: in vivo; settings: juvenile ±7-OHDPAT 0.3 mg/kg P20-P35, vs VEH
# Protocol: FIG. 6. Locomotor activity in response to a 10 mg/kg challenge with cocaine on the second day of cocaine conditioning in VEH- and ±7-OHDPAT-treated subjects (n=7-8 animals per group). *P<0.05 comparing the 10 mg/kg cocaine groups.
# Juvenile Sprague-Dawley male rats were treated with MPH (2 mg/kg, i.p. twice daily), ±7-OHDPAT (0.3 mg/kg, i.p. twice daily), Naf (0.05, 0.5 and 5 mg/kg; i.p. twice daily) or VEH (i.p. twice daily) between the ages of P20 and P35 (Andersen et al., Nat. Neurosci., 5:13-14 (2002)). […]
# To further investigate the functional role of the D3 receptor in juvenile psychostimulant treatment, animals were pre-pubertally treated with the D3-preferring agonist ±7-OHDPAT, the D3 antagonist Naf or a MPH/Naf combination. […] Next, juvenile manipulations of the D3 receptor on place conditioning were assessed and compared with each other. […]
# Sprague-Dawley male rats [3] = experiment: Place conditioning to 10 mg/kg cocaine at P60 after juvenile drug exposure; assay type: in vivo; settings: 10 µg/side into MPFCx during conditioning
# [4] = tested on: mature and immature animals; settings: cited from earlier work
# D2 receptor = settings: Naf doses below 1 mg/kg; cited from earlier work
Compound,"place conditioning to 10 mg/kg cocaine associated environment (pre- vs. post-conditioning) (Sprague-Dawley male rats [1]; juvenile exposure P20-P35: MPH 2 mg/kg, ±7-OHDPAT 0.3 mg/kg, or MPH 2 mg/kg + Naf 0.05 mg/kg, tested at P60)","baseline locomotor activity (Sprague-Dawley male rats [2]; 60 days old, P>0.9)","locomotor response to 10 mg/kg cocaine challenge (Sprague-Dawley male rats [2]; second day of cocaine conditioning, P<0.05)",place conditioning to cocaine after ±7-OHDPAT microinjection into the MPFCx (Sprague-Dawley male rats [3]; MPH-exposed subjects),"place conditioning to cocaine after ±7-OHDPAT microinjection into the MPFCx (Sprague-Dawley male rats [3]; MPH-exposed subjects, listed as ±7 OHDPAT)",place conditioning to cocaine after ±7-OHDPAT microinjection into the MPFCx (Sprague-Dawley male rats [3]; VEH-exposed subjects),"place conditioning to cocaine after ±7-OHDPAT microinjection into the MPFCx (Sprague-Dawley male rats [3]; VEH-exposed subjects, listed as ±7 OHDPAT)",locomotor activity [4],place conditioning to cocaine-associated environment (pre- vs. post-conditioning) (Sprague-Dawley male rats [1]; juvenile Naf 0.05 mg/kg i.p. twice daily P20-P35),place conditioning to cocaine-associated environment (pre- vs. post-conditioning) (Sprague-Dawley male rats [1]; juvenile Naf 0.5 mg/kg i.p. twice daily P20-P35),place conditioning to cocaine-associated environment (pre- vs. post-conditioning) (Sprague-Dawley male rats [1]; juvenile Naf 5.0 mg/kg i.p. twice daily P20-P35),D2 receptor occupancy (D2 receptor)
"CCCN(CCC)C1CCc2ccc(O)cc2C1 (racemic) [±7-OHDPAT, ±7-hydroxy-N,N-di-n-propyl-2-aminotetralin]",Place aversion; also recorded: aversion to the cocaine-associated environment,did not differ from VEH control animals,significantly reduced,reversing the aversion to cocaine; also recorded: produced a place preference to cocaine,significant preference for cocaine-associated environments,no greater effect,significant preference for cocaine-associated environments,inhibit locomotor activity,,,,
"CCCCN1CCCC1CNC(=O)c1cc(C#N)c2ccccc2c1OC (stereo not shown) [Naf, Nafadotride]",,,,,,,,,significant preference,significant preference,did not form such a preference,negligible
CCCN1CCO[C@@H]2c3cc(O)ccc3OC[C@H]21 [PD 128907],,,,,,,,inhibit locomotor activity,,,,
